This is an account of results in patent US9521847B2, “Synergistic weed control from applications of pyridine carboxylic acid herbicides and synthetic auxin herbicides and/or auxin transport inhibitors” (Dow AgroSciences LLC, priority 2014, dated 2016).

In data set [1] the test system is spring rape (Brassica napus, BRSNN). As to the kind of experiment: Greenhouse postemergence trial, % visual injury.
For data set [2], the system named is winter rape (BRSNW, Brassica napus). As to the kind of experiment: Greenhouse postemergence trial, % visual injury. In kind it is in vivo. To be noted: 20-22 d.
Data set [3] has as its system pigweed (AMARE, Amaranthus retroflexus). Briefly: Greenhouse postemergence trial, % visual injury. In kind it is in vivo.
Data set [4] concerns spring barley (HORVS). To be noted: Hordeum vulgare (spring barley), in vivo.
For data set [5], the system named is winter wheat (TRZAW). To be noted: in vivo.
The test system of data set [6] is common lambsquarters (CHEAL, Chenopodium album L.). Briefly: Greenhouse postemergence trial, % visual injury. It counts as in vivo.
Data set [7] deals with large crabgrass (Digitaria sanguinalis, DIGSA). As to the kind of experiment: Greenhouse postemergence trial, % visual injury. It counts as in vivo. The conditions noted are these: DIGSA.
Data set [8] relates to poinsettia (Euphorbia heterophylla, EPHHL). Briefly: Greenhouse postemergence trial, % visual injury.
Data set [9] concerns common rice (ORYSA). The conditions noted are these: in vivo.
Data set [10] has as its system wild pansy (Viola tricolor, VIOTR). Briefly: Greenhouse postemergence trial, % visual injury.
Data set [11] relates to Canadian thistle (CIRAR, Cirsium arvense). Briefly: Greenhouse postemergence trial, % visual injury. The conditions noted are these: for % visual injury, Obs: CIRAR.
Data set [12] has as its system maize (ZEAMX). To be noted: maize (Zea mays), in vivo.
Data set [13] has as its system ivyleaf morningglory (Ipomoea hederacea, IPOHE). As to the kind of experiment: Greenhouse postemergence trial, % visual injury.
Data set [14] has as its system sunflower (Helianthus annus, HELAN). Briefly: Greenhouse postemergence trial, % visual injury. In kind it is in vivo.
The subject of data set [15] is velvetleaf (Abutilon theophrasti, ABUTH). As to the kind of experiment: Greenhouse postemergence trial, % visual injury. In kind it is in vivo.
For data set [16], the system named is nutsedge (Cyperus esculentus, CYPES). Briefly: Greenhouse postemergence trial, % visual injury. In kind it is in vivo.
Data set [17] has as its system common chickweed (Stellaria media, STEME). As to the kind of experiment: Greenhouse postemergence trial, % visual injury. In kind it is in vivo.
Data set [18] relates to common rice (ORYSA). Briefly: Greenhouse postemergence trial, crop phytotoxicity (% visual injury). The conditions noted are these: for % visual injury, Obs: ORYSA.
In data set [19] the test system is spring barley (HORVS). Described as above. The conditions noted are these: crop, 20-22 d.
Data set [20] has as its system maize (ZEAMX). The description is as above. The conditions noted are these: for % visual injury, Obs: ZEAMX.
The test system of data set [21] is kochia (KCHSC, Kochia scoparia). As to the kind of experiment: Greenhouse postemergence trial, % visual injury. In kind it is in vivo. The protocol:
Following the protocol in Example 1, compound 1 and compound 2 were combined with 2,4 D EHE (EC) and applied to kochia (KCHSC, Kochia scoparia) and the phytotoxicity of the herbicidal compositions was measured.
Following the protocol in Example 1, compound 1 (EC) and Compound 2 (SC) were combined with diflufenzopyr and applied to kochia (Kochia scoparia, KCHSC) and the phytotoxicity of the herbicidal composition was measured.

The subject of data set [22] is winter wheat (TRZAW). As to the kind of experiment: Greenhouse postemergence trial, crop phytotoxicity (% visual injury). The conditions noted are these: for % visual injury, Obs: TRZAW; for % visual injury Obs: crop, 20-22 d.
For data set [23], the system named is grain sorghum (Sorghum vulgare, SORVU). As to the kind of experiment: Greenhouse postemergence trial, % visual injury. It counts as in vivo.
The subject of data set [24] is wild buckwheat (Polygonum convolvulus, POLCO). As to the kind of experiment: Greenhouse postemergence trial, % visual injury. To be noted: POLCO, 5 g ae/ha. It counts as in vivo.
Setting [25] is: Brassica napus, post-emergence, read-out: % visual injury (Obs).
[26] abbreviates: Brassica napus, post-emergence, read-out: % visual injury, Obs.
Where [27] appears, read: Triticum aestivum (winter wheat).
Setting [28] is: winter wheat (Triticum aestivum).
The mark [29] stands for this setting: Cirsium arvense, post-emergence, read-out: % visual injury (Obs).
Setting [30] is: Cirsium arvense, post-emergence, read-out: % visual injury Obs.

SMILES strings stand for the structures. Where two headings read alike, the source gives them in different places.

As for `COc1c(Cl)ccc(Cl)c1C(=O)O` [Dicamba-DMA, dicamba-dimethylammonium, reference compound], in data set [1] (setting [25]), the plant injury at 150 g/ha came to 40%. The plant injury at 140 g/ha in data set [1] (setting [26]) is 50%. For the same compound, the “% visual injury Obs” value was determined as 40% in data set [2] (140 g ae/ha alone), 0% in the data set with spring barley (HORVS) [4] and 0% with winter wheat (TRZAW) [5] (setting [27]). Further, the pest or weed control at 140 g/ha was 67% in data set [3] (Amaranthus retroflexus, post-emergence, 140 g ae/ha alone, 20-22 d, read-out: % visual injury Obs); 0% in data set [7] (Digitaria sanguinalis, post-emergence, 140 g ae/ha, read-out: % visual injury, Obs); 20% in [8] (Euphorbia heterophylla, post-emergence, read-out: % visual injury, Obs, EPHHL, 140 g ae/ha). For the same compound, the “% visual injury (Obs)” value amounted to 0% in the data set on winter wheat (TRZAW) [5] (setting [28]); 50% in data set [8] (dicamba-DMA 150 g ae/ha); 0% in the data set with common rice (ORYSA) [9]; 20% in [10] (dicamba-DMA 150 g ae/ha); 0% with maize (ZEAMX) [12]; 70% in data set [13] (dicamba-DMA 150 g ae/ha). Also, the “% visual injury, Obs” value is recorded as 0% in the data set with winter wheat (TRZAW) [5] (setting [28]); 85% in data set [6] (CHEAL, 140 g ae/ha); 5% with common rice (ORYSA) [9]; 0% in the data set with maize (ZEAMX) [12]. Besides, the pest or weed control at 150 g/ha in data set [11] (setting [29]) was 70%.

On to `CC(Oc1ccc(Cl)cc1Cl)C(=O)O` (stereo not drawn) [Dichlorprop-P, dichlorprop-P, reference compound], for which, in data set [1] (setting [25]), the plant injury at 400 g/ha was 80%. Moreover, the entries for the “% visual injury Obs” value (in data set [2] (280 g ae/ha alone); with spring barley (HORVS) [4]; in the data set with winter wheat (TRZAW) [5] (setting [27])) were 83%, 0% and 0%, respectively. Besides, the pest or weed control at 280 g/ha in [3] (Amaranthus retroflexus, post-emergence, 280 g ae/ha alone, 20-22 d, read-out: % visual injury Obs) is 40%; in data set [11] (setting [30]), 75%. The “% visual injury (Obs)” value in data set [14] (dichlorprop-P 400 g ae/ha) worked out at 85%; in data set [15] (dichlorprop-P 400 g ae/ha) it was 60%; with winter wheat (TRZAW) [5] (setting [28]), 0%; in [16] (dichlorprop-P 400 g ae/ha), 0%; in [8] (dichlorprop-P 400 g ae/ha), 60%; with common rice (ORYSA) [9], 0%. The “% visual injury (Obs)” value in [17] (dichlorprop-P 400 g ae/ha) amounted to 20%. For the same compound, the pest or weed control at 400 g/ha in data set [11] (setting [29]) is 70%.

Take `Cc1cc(Cl)ccc1OC(C)C(=O)O` (stereo not drawn) [Mecoprop-P, mecoprop-P]: the “% visual injury, Obs” value in the data set with common rice (ORYSA) [18] (400 g ae/ha) is given as 0%; in the data set on maize (ZEAMX) [20] (400 g ae/ha), 0%; in data set [11] (400 g ae/ha) it was 10%; in the data set with winter wheat (TRZAW) [22] (400 g ae/ha) it was 0%; in data set [17] (STEME, 400 g ae/ha), 0%; in [23] (SORVU, 400 g ae/ha), 0%. The plant injury at 400 g/ha in data set [1] (setting [26]) came out at 30%. The “% visual injury Obs” value in [2] (400 g ae/ha alone) came out at 88%; with spring barley (HORVS) [19] (400 g ae/ha alone) it was 0%; in the data set with winter wheat (TRZAW) [22] (400 g ae/ha alone), 0%. In addition, the pest or weed control at 400 g/ha amounted to 58% in data set [3] (Amaranthus retroflexus, post-emergence, 400 g ae/ha alone, 20-22 d, read-out: % visual injury Obs); 30% in [15] (Abutilon theophrasti, post-emergence, ABUTH, 400 g ae/ha, read-out: % visual injury, Obs); 30% in data set [8] (Euphorbia heterophylla, post-emergence, read-out: % visual injury, Obs, EPHHL, 400 g ae/ha); 10% in data set [21] (Bassia scoparia, post-emergence, KCHSC, 400 g ae/ha, read-out: % visual injury, Obs); 30% in data set [13] (Ipomoea, post-emergence, read-out: % visual injury, Obs, IPOHE, 400 g ae/ha).

On to `COc1c(Cl)ccc(-c2nc(C(=O)OCc3ccccc3)c(Cl)c(N)c2F)c1F` [Rinskor ™], for which the “% visual injury, Obs” value with common rice (ORYSA) [18] (5 g ae/ha) came out at 0%; in [1] (BRSNN, 5 g ae/ha), 20%; in data set [14] (HELAN, 5 g ae/ha), 85%; in [15] (ABUTH, 5 g ae/ha) it was 80%; in data set [16] (CYPES, 5 g ae/ha), 70%; in data set [7] (5 g ae/ha) it was 0%. Also, the “% visual injury, Obs” value is given as 10% in data set [10] (VIOTR, 5 g ae/ha); 0% with maize (ZEAMX) [20] (5 g ae/ha); 50% in data set [21] (KCHSC, 5 g ae/ha); 70% in data set [11] (5 g ae/ha); 0% in the data set on winter wheat (TRZAW) [22] (5 g ae/ha); 60% in [24].

Turning to `O=C(O)c1nc(Cl)ccc1Cl` [clopyralid], the “% visual injury, Obs” value is given as 0% in the data set on common rice (ORYSA) [18] (100 g ae/ha); 28% in [3] (AMARE, 100 g ae/ha); 0% in the data set with maize (ZEAMX) [20] (100 g ae/ha); 0% with winter wheat (TRZAW) [22] (100 g ae/ha). For the same compound, the “% visual injury (Obs)” value in the data set with common rice (ORYSA) [18] (clopyralid 120 g ae/ha) amounted to 0%; in data set [6] (clopyralid 120 g ae/ha) it was 10%; in the data set with maize (ZEAMX) [20] (clopyralid 120 g ae/ha), 0%; in data set [21] (clopyralid 120 g ae/ha), 10%; with winter wheat (TRZAW) [22] (clopyralid 120 g ae/ha) it was 0%; in data set [17] (clopyralid 120 g ae/ha) it was 0%. For the same compound, the “% visual injury (Obs)” value in data set [13] (clopyralid 120 g ae/ha) is 30%. Also, in data set [1] (setting [26]), the plant injury at 100 g/ha was 43%. In addition, the “% visual injury Obs” value in data set [2] (100 g ae/ha alone) is 0%; in the data set with spring barley (HORVS) [19] (100 g ae/ha alone), 5%; in the data set with winter wheat (TRZAW) [22] (100 g ae/ha alone), 3%. The pest or weed control at 100 g/ha in [3] (Amaranthus retroflexus, post-emergence, 100 g ae/ha alone, 20-22 d, read-out: % visual injury Obs) is 3%; in [6] (Chenopodium album, post-emergence, 100 g ae/ha alone, 20-22 d, read-out: % visual injury Obs) it was 0%; in data set [7] (Digitaria sanguinalis, post-emergence, 100 g ae/ha, read-out: % visual injury, Obs) it was 0%; in data set [8] (Euphorbia heterophylla, post-emergence, read-out: % visual injury, Obs, EPHHL, 100 g ae/ha) it was 5%; in data set [11] (setting [30]), 85%; in [13] (Ipomoea, post-emergence, read-out: % visual injury, Obs, IPOHE, 100 g ae/ha) it was 35%.

Consider `Nc1c(F)c(-c2ccc3cc[nH]c3c2)nc(C(=O)O)c1Cl` [compound 16], for which the plant injury at 5 g/ha in data set [1] (setting [25]) was 60%. The “% visual injury (Obs)” value with winter wheat (TRZAW) [5] (setting [27]) was found to be 0%; in [16] (compound 16 5 g ae/ha), 25%; in [10] (compound 16 5 g ae/ha), 25%; in data set [23] (compound 16 5 g ae/ha), 13%. Besides, the pest or weed control at 5 g/ha in data set [11] (setting [29]) turned out to be 20%.
